Measurements taken from ChEMBL document CHEMBL5576124, “Discovery of an Exceptionally Orally Bioavailable and Potent HPK1 PROTAC with Enhancement of Antitumor Efficacy of Anti-PD-L1 Therapy” (J Med Chem, 2024).
Calls of active or inactive are those of the source. No cut-off for these calls is given here.

How the values were obtained:
[1] = molecular target: T1, Protein cereblon/Mitogen-activated protein kinase kinase kinase kinase 1 (Homo sapiens, UniProt Q92918+Q96SW2); assay: PROTAC activity at CRBN/HPK1 in human Jurkat cells assessed as maximal degradation of HPK1 protein incubated for 24 hrs by Nano-Glo luminescence assay relative to control; format: cell-based
Target sequence in this assay (Q92918 whole entry, looked up): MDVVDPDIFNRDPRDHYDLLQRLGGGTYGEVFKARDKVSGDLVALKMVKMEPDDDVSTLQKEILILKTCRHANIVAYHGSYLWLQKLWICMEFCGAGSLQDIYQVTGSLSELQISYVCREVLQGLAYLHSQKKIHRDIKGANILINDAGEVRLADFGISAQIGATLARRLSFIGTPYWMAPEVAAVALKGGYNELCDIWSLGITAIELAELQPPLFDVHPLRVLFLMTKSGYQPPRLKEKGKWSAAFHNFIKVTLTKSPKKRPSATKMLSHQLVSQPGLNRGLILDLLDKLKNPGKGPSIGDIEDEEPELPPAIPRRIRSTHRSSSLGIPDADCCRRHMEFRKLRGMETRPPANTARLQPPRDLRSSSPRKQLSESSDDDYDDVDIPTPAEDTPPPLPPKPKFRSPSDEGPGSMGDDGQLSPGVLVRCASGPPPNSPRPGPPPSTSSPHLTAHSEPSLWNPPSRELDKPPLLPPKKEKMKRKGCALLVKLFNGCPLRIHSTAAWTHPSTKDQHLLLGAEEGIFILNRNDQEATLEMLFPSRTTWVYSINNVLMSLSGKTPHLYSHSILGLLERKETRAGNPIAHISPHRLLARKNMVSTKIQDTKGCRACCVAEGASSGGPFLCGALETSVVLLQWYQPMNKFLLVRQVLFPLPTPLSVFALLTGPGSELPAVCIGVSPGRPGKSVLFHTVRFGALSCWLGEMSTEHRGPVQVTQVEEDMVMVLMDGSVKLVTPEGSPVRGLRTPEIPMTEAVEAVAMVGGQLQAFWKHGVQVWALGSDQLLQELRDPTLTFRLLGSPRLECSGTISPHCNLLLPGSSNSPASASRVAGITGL
Target sequence in this assay (Q96SW2 whole entry, looked up): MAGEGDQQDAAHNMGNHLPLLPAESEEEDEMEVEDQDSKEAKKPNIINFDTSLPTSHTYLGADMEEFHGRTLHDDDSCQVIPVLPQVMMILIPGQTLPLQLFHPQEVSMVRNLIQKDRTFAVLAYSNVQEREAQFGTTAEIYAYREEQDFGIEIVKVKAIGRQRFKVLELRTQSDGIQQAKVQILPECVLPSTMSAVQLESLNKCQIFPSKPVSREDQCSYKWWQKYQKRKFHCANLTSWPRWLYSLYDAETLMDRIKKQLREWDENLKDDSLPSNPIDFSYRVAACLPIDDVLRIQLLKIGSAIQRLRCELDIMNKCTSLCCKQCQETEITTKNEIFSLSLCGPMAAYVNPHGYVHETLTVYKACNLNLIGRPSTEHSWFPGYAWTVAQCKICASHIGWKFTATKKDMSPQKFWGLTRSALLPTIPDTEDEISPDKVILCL

[2] = molecular target: T1, Protein cereblon/Mitogen-activated protein kinase kinase kinase kinase 1; assay: PROTAC activity at CRBN/HPK1 in human Jurkat cells assessed as maximal degradation of HPK1 protein incubated for 24 hrs by Western blotting analysis relative to control; format: cell-based
Target sequence in this assay (Q92918 whole entry, looked up): as the sequence (Q92918 whole entry, looked up) above
Target sequence in this assay (Q96SW2 whole entry, looked up): as the sequence (Q96SW2 whole entry, looked up) above

[3] = molecular target: T1, Protein cereblon/Mitogen-activated protein kinase kinase kinase kinase 1; assay: PROTAC activity at CRBN/HPK1 in human Jurkat cells assessed as degradation of HPK1 protein incubated for 24 hrs by Western blotting analysis; format: cell-based
Target sequence in this assay (Q92918 whole entry): as the sequence (Q92918 whole entry, looked up) above
Target sequence in this assay (Q96SW2 whole entry): as the sequence (Q96SW2 whole entry, looked up) above

[4] = molecular target: Mitogen-activated protein kinase kinase kinase kinase 1 (Homo sapiens, UniProt Q92918); assay: Inhibition of HPK1 (unknown origin)
Mitogen-activated protein kinase kinase kinase kinase 1, sequence (Q92918 whole entry): as the sequence (Q92918 whole entry, looked up) above

T-cell line = assay: Immunostimulatory activity in human T cell assessed as increase in IL-2 secretion at 10 uM relative to control; format: functional
Jurkat [5] = assay: Antiproliferative activity against human Jurkat cells assessed as inhibition of cell growth at 10 uM incubated for 3 days by CCK-8 assay; format: functional, cell-based; details: time 3.0 day
Jurkat [6] = assay: Antiproliferative activity against human Jurkat cells assessed as inhibition of cell growth at 2 uM incubated for 3 days by CCK-8 assay; format: functional, cell-based; details: time 3.0 day
CT26 = assay: Antitumor activity against mouse CT26 cells implanted BALB/c mouse model assessed as tumor growth inhibition at 25 mg/kg,po administrated once daily for 15 days relative to control; format: functional; details: CT26, 360 h, time 15 day, read-out: TGI
[7] = Cmax in Sprague-Dawley rat at 10 mg/kg,po measured upto 24 hrs by LC-MS analysis; format: ADME, organism-based; details: in vivo
[8] = MRT in Sprague-Dawley rat at 10 mg/kg,po measured upto 24 hrs by LC-MS analysis; format: ADME, organism-based; details: in vivo
[9] = AUC (0 to t) in Sprague-Dawley rat at 10 mg/kg,po measured upto 24 hrs by LC-MS analysis; format: ADME, organism-based; details: in vivo
[10] = Tmax in Sprague-Dawley rat at 10 mg/kg,po measured upto 24 hrs by LC-MS analysis; format: ADME, organism-based; details: in vivo
[11] = Half life in Sprague-Dawley rat at 10 mg/kg,po measured upto 24 hrs by LC-MS analysis; format: ADME, organism-based; details: in vivo

Row | Emax [2] | DC50 [3] | Structure (SMILES) | further results
1 | 2.8% | > 10000 nM | Cc1cc(-c2c[nH]c3ncc(-c4ccc(C5CCN(c6cccc7c6C(=O)N(C6CCC(=O)NC6=O)C7=O)CC5)cc4)nc23)ccc1C(=O)N(C)C (stereo not drawn) | –
2 | 42.6% | > 10000 nM | Cc1cc(-c2c[nH]c3ncc(-c4ccc(C5CCN(C(=O)C6CN(c7ccc8c(c7)C(=O)N(C7CCC(=O)NC7=O)C8=O)C6)CC5)cc4)nc23)ccc1C(=O)N(C)C (stereo not drawn) | –
3 | 76.6% | 94 nM | Cc1cc(-c2c[nH]c3ncc(-c4ccc(C5CCN(C6CCN(c7ccc8c(c7)C(=O)N(C7CCC(=O)NC7=O)C8=O)C6)CC5)cc4)nc23)ccc1C(=O)N(C)C (stereo not drawn) | –
4 | 22.7% | > 10000 nM | Cc1cc(-c2c[nH]c3ncc(-c4ccc(C5CCN(C6CN(C(=O)CNc7cccc8c7C(=O)N(C7CCC(=O)NC7=O)C8=O)C6)CC5)cc4)nc23)ccc1C(=O)N(C)C (stereo not drawn) | –
5 | 63.6% | 962 nM | Cc1cc(-c2c[nH]c3ncc(-c4ccc(C5CCN(C(=O)CCNc6cccc7c6C(=O)N(C6CCC(=O)NC6=O)C7=O)CC5)cc4)nc23)ccc1C(=O)N(C)C (stereo not drawn) | –
6 | 6.7% | > 10000 nM | Cc1cc(-c2c[nH]c3ncc(-c4ccc(C5CCN(C(=O)CCOc6cccc7c6C(=O)N(C6CCC(=O)NC6=O)C7=O)CC5)cc4)nc23)ccc1C(=O)N(C)C (stereo not drawn) | –
7 | 63.6% | 1750 nM | Cc1cc(-c2c[nH]c3ncc(-c4ccc(C5CCN(C(=O)C6CCN(c7ccc8c(c7)C(=O)N(C7CCC(=O)NC7=O)C8=O)CC6)CC5)cc4)nc23)ccc1C(=O)N(C)C (stereo not drawn) | –
8 | 84.1% | 78.8 nM | Cc1cc(-c2c[nH]c3ncc(-c4ccc(C5CCN(CC6CCN(c7ccc8c(c7)C(=O)N(C7CCC(=O)NC7=O)C8=O)C6)CC5)cc4)nc23)ccc1C(=O)N(C)C (stereo not drawn) | –
9 | 37.9% | > 10000 nM | Cc1cc(-c2c[nH]c3ncc(-c4ccc(N5CCN(c6cccc7c6C(=O)N(C6CCC(=O)NC6=O)C7=O)CC5)cc4)nc23)ccc1C(=O)N(C)C (stereo not drawn) | Cmax [7]: 602 ng/mL; MRT [8]: 6.8 h; AUC(0-t) at 24 h [9]: 4470 ng·h/mL; Tmax [10]: 1 h; half-life [11]: 4.4 h
10 | 3.4% | > 10000 nM | Cc1cc(-c2c[nH]c3ncc(-c4ccc(C5CCN(c6ccc7c(c6)C(=O)N(C6CCC(=O)NC6=O)C7=O)CC5)cc4)nc23)ccc1C(=O)N(C)C (stereo not drawn) | –
11 | 64.9% | 152 nM | Cc1cc(-c2c[nH]c3ncc(-c4ccc(C5CCN(C6CN(c7cccc8c7C(=O)N(C7CCC(=O)NC7=O)C8=O)C6)CC5)cc4)nc23)ccc1C(=O)N(C)C (stereo not drawn) | –
12 | 56.6% | 245 nM | Cc1cc(-c2c[nH]c3ncc(-c4ccc(C5CCN(C(=O)CCOCCOCCOc6cccc7c6C(=O)N(C6CCC(=O)NC6=O)C7=O)CC5)cc4)nc23)ccc1C(=O)N(C)C (stereo not drawn) | Cmax [7]: 118 ng/mL; MRT [8]: 3.6 h; AUC(0-t) at 24 h [9]: 187 ng·h/mL; Tmax [10]: 0.5 h; half-life [11]: 2.3 h
13 | 84.1% | 420 nM | Cc1cc(-c2c[nH]c3ncc(-c4ccc(C5CCN(CC6CCN(c7ccc8c(c7)C(=O)N(C7CCC(=O)NC7=O)C8=O)CC6)CC5)cc4)nc23)ccc1C(=O)N(C)C (stereo not drawn) | –
14 | 39.4% | > 10000 nM | Cc1cc(-c2c[nH]c3ncc(-c4ccc(C5CCN(C6CN(C(=O)C7CN(c8ccc9c(c8)C(=O)N(C8CCC(=O)NC8=O)C9=O)C7)C6)CC5)cc4)nc23)ccc1C(=O)N(C)C (stereo not drawn) | –
15 | 0.1% | > 10000 nM | Cc1cc(-c2c[nH]c3ncc(-c4ccc(C5CCN(C(=O)CNc6cccc7c6C(=O)N(C6CCC(=O)NC6=O)C7=O)CC5)cc4)nc23)ccc1C(=O)N(C)C (stereo not drawn) | –

The remaining lines, values behind:

Row | Structure (SMILES) | Emax [2] | DC50 [3] | further results
16 | Cc1cc(F)c(Nc2nc(-c3ccc4c(c3)N(C3CC(N5CCCCC5)C3)C(=O)C43CCN(CCOCCOCCOCCOCCOCCOCCOCCNc4cccc5c4C(=O)N(C4CCC(=O)NC4=O)C5=O)CC3)cc3ncn(C(C)C)c23)cc1C(=O)NC(C)C (stereo not drawn) | – | – | Emax [1]: > 65%
17 | Cc1cc(-c2c[nH]c3ncc(-c4ccc(N5CCN(CC6CCN(c7ccc8c(c7)C(=O)N(C7CCC(=O)NC7=O)C8=O)C6)CC5)cc4)nc23)ccc1C(=O)N(C)C (stereo not drawn) | 56.6% | 246 nM | –
18 | Cc1cc(-c2c[nH]c3ncc(-c4ccc(C5CCN(C6CN(c7cc8c(cc7F)C(=O)N(C7CCC(=O)NC7=O)C8=O)C6)CC5)cc4)nc23)ccc1C(=O)N(C)C (stereo not drawn) | 84.2% | 78.8 nM | –
19 | Cc1cc(-c2c[nH]c3ncc(-c4ccc(C5CCN(CCC6CCN(c7ccc8c(c7)C(=O)N(C7CCC(=O)NC7=O)C8=O)CC6)CC5)cc4)nc23)ccc1C(=O)N(C)C (stereo not drawn) | 58.5% | 1060 nM | –
20 | Cc1cc(-c2c[nH]c3ncc(-c4ccc(C5CCN(C6CN(C(=O)C7CCN(c8ccc(C(=O)NC9CCC(=O)NC9=O)cc8)CC7)C6)CC5)cc4)nc23)ccc1C(=O)N(C)C (stereo not drawn) | 24.2% | > 10000 nM | –
21 | Cc1cc(-c2c[nH]c3ncc(-c4cc(C)c5c(c4)CN(C)CC5)nc23)ccc1C(=O)N(C)C | – | – | IC50 [4]: 5.82 nM; Activity (T-cell line): 34.15%; Activity (Jurkat [5]): Active; Activity (Jurkat [6]): Active; inhibition in vivo at 25 mg/kg (CT26): 16.5%
22 | Cc1cc(-c2c[nH]c3ncc(-c4ccc(C5CCN(C6CN(C(=O)C7CCN(c8ccc9c(c8)C(=O)N(C8CCC(=O)NC8=O)C9=O)CC7)C6)CC5)cc4)nc23)ccc1C(=O)N(C)C (stereo not drawn) | 30.1% | > 10000 nM | –
23 | Cc1cc(-c2c[nH]c3ncc(-c4ccc(C5CCN(C6CN(C(=O)C7CCN(c8ccc(NC9CCC(=O)NC9=O)cc8)CC7)C6)CC5)cc4)nc23)ccc1C(=O)N(C)C (stereo not drawn) | 41.4% | > 10000 nM | –
24 | Cc1cc(-c2c[nH]c3ncc(-c4ccc(N5CCN(CC6CN(c7ccc8c(c7)C(=O)N(C7CCC(=O)NC7=O)C8=O)C6)CC5)cc4)nc23)ccc1C(=O)N(C)C (stereo not drawn) | 94.6% | 134 nM | Cmax [7]: 1500 ng/mL; MRT [8]: 6.84 h; AUC(0-t) at 24 h [9]: 16000 ng·h/mL; Tmax [10]: 3 h; half-life [11]: 4.86 h
25 | Cc1cc(-c2c[nH]c3ncc(-c4ccc(C5CCN(C6CN(CC7CCN(c8ccc(N9CCC(=O)NC9=O)c(C)c8)CC7)C6)CC5)cc4)nc23)ccc1C(=O)N(C)C | 79.3% | 127 nM | –
26 | Cc1cc(-c2c[nH]c3ncc(-c4ccc(N5CCN(C6CCN(c7ccc8c(c7)C(=O)N(C7CCC(=O)NC7=O)C8=O)CC6)CC5)cc4)nc23)ccc1C(=O)N(C)C (stereo not drawn) | 56.1% | 99.2 nM | –
27 | Cc1cc(-c2c[nH]c3ncc(-c4ccc(N5CCN(C6CN(c7ccc8c(c7)C(=O)N(C7CCC(=O)NC7=O)C8=O)C6)CC5)cc4)nc23)ccc1C(=O)N(C)C (stereo not drawn) | 68.3% | 28.2 nM | –
28 | Cc1cc(-c2c[nH]c3ncc(-c4ccc(N5CCN(CCC6CCN(c7ccc8c(c7)C(=O)N(C7CCC(=O)NC7=O)C8=O)CC6)CC5)cc4)nc23)ccc1C(=O)N(C)C (stereo not drawn) | 48.2% | > 10000 nM | –
29 | Cc1cc(-c2c[nH]c3ncc(-c4ccc(C5CCN(C6CN(C7CN(c8ccc9c(c8)C(=O)N(C8CCC(=O)NC8=O)C9=O)C7)C6)CC5)cc4)nc23)ccc1C(=O)N(C)C (stereo not drawn) | 58.1% | 295 nM | –
30 | Cc1cc(-c2c[nH]c3ncc(-c4ccc(N5CCN(CC6CCN(c7ccc8c(c7)C(=O)N(C7CCC(=O)NC7=O)C8=O)CC6)CC5)cc4)nc23)ccc1C(=O)N(C)C (stereo not drawn) | 59.9% | 33.9 nM | Cmax [7]: 636 ng/mL; MRT [8]: 24.6 h; AUC(0-t) at 24 h [9]: 9970 ng·h/mL; Tmax [10]: 4 h; half-life [11]: 16.7 h
31 | Cc1cc(-c2c[nH]c3ncc(-c4ccc(N5CCN(c6ccc7c(c6)C(=O)N(C6CCC(=O)NC6=O)C7=O)CC5)cc4)nc23)ccc1C(=O)N(C)C (stereo not drawn) | 22.3% | > 10000 nM | –
32 | Cc1cc(-c2c[nH]c3ncc(-c4ccc(C5CCN(CC6CCN(C7CN(c8ccc9c(c8)C(=O)N(C8CCC(=O)NC8=O)C9=O)C7)CC6)CC5)cc4)nc23)ccc1C(=O)N(C)C (stereo not drawn) | 38% | > 10000 nM | –
33 | Cc1cc(-c2c[nH]c3ncc(-c4ccc(C5CCN(C6CN(C(=O)Cc7ccc(NC8CCC(=O)NC8=O)cc7)C6)CC5)cc4)nc23)ccc1C(=O)N(C)C (stereo not drawn) | 38.5% | > 10000 nM | –
